The values below are quoted from earlier work in patent US7078395B1, “Methods for treating or preventing cancer by preventing, inhibiting or arresting cell cycling” (priority 1999, dated 2006).

The subject of data set [1] is Meth A sarcoma. The note with it: 100 mg/kg, p.o., every other day, 12 day, CH3 mice (10); cited from earlier work.
In data set [2] the test system is B16 melanoma. The note with it: 100 mg/kg, p.o., every other day, 12 day, CH3 mice (10); cited from earlier work.
Data set [3] relates to MCF-7 breast cancer cells. The note with it: reported by Seegers et al. (8); cited from earlier work.
Data set [4] has as its system MDA-MB-435 breast cancer cells. The note with it: oral, 75 mg/kg/day for 29 days, SCID mice (11); cited from earlier work.

Some results are limits rather than exact numbers.

On to `COc1cc2c(cc1O)CC[C@@H]1[C@@H]2CC[C@]2(C)[C@@H](O)CC[C@@H]12` [2-MeOE2, 2-methoxyoestradiol], for which the figures for the “reduction of tumour growth” value in data set [1] and in data set [2] were 57% and 83%, respectively. Also, the “concentrations cytotoxic to MCF-7 breast cancer cells” value in data set [3] is listed as not below 1 μm. Moreover, the “reduction of tumour volumes compared with untreated controls” value in data set [4] was 60%. Moreover, the toxic side effects entry in data set [4] is reported as “No toxic side effects were detected”.
